{Cy5} = cyanine 5 fluorescent dye
Legend:
[1] = test system: A549 human non-small cell lung cancer tumor spheres; assay: High content imaging: entry into A549 tumor spheres; type: cell-based; conditions: 100 nM, imaging without washing
Description: In this experiment, the entry of conjugate AP1 provided by the present disclosure and comparative conjugate comparative AP10 into U118MG glioma tumor spheres and A549 human non-small cell lung cancer tumor spheres was observed by a PerkinElmer High Content Imaging system (Operatta).
80 μL fresh, sterilized and unsolidified 2% agarose was added into the culture wells of a 96-well plate. […] Half of the supernatant was aspirated every 48 h and fresh DMEM medium was added along the wall of the culture wells. After 7 days of culture, the cells were observed under the microscope to confirm that complete cell spheres were obtained, indicating successful tumor sphere cultivation.
Each culture well was added with AP1 or comparative AP10 according to the method of experimental Example 2, and imaged in a high content imaging system, with the only difference of directly performing imaging after culture without washing and performing imaging according to the measured fluorescence intensity of Cy5.

SVGp12 normal astrocytes = assay: High content imaging: entry of conjugates into SVGp12 normal astrocytes; type: cell-based, human; conditions: 100 nM, 30 min 37°C
Description: (§1) In this experiment, the entry of conjugate AP1 provided by the present disclosure and comparative conjugate comparative AP10 into different cells was observed by a PerkinElmer High Content Imaging system (Operatta).
(§2) U118MG glioma cells, SVGp12 normal astrocytes, T98G human brain glioma cells, U251 human glioma cells, A549 human non-small cell lung cancer cells, MCF-7 human breast cancer cells, and 293T human kidney epithelial cells were all purchased from the Shanghai Cell Bank of Chinese Academy of Sciences. […] The supernatant was aspirated and DPBS buffer (purchased from Thermo Fisher) was added to wash the plate 2 times (100 μL each time).
(§3) Conjugate AP1 prepared above and yeast tRNA were respectively formulated into conjugate solution 2A with DMEM medium, and the conjugate solution 2A comprised yeast tRNA at a final concentration of 100 μg/mL and conjugate AP1 at a final concentration of 100 nM. […]
(§4) Normalization was performed according to the mean fluorescence intensity of control group 2Y, that is, subtracting the mean fluorescence intensity of control group 2Y from the fluorescence intensity of test group 2X before performing imaging.

[2] = test system: 293T human renal epithelial cells; assay: High content imaging: entry of conjugates into 293T cells; type: cell-based; conditions: 100 nM, 30 min 37°C, normal cells
Description: as §1, §2, §3, §4

[3] = test system: U118MG glioma subcutaneous tumor; assay: In vivo distribution in U118MG cell subcutaneous tumor model mice (Experimental Example 4); set-up: species or system NOD-SCID mice; conditions: mouse, in vivo
Description: U118MG human glioma cells in the logarithmic growth phase were selected and digested (0.25% pancreatic enzyme).
The mice were further fed for 20 days after injection.
The mice inoculated with U118MG above were randomly divided into 3 groups (4 mice per group). For the 4 mice per group, the administration volume was calculated according to 10 μL/g body weight, and AP1, AP2 and comparative AP11 were respectively administered to different groups of mice by tail vein injection and designated as test group 4A1, test group 4A2 and control group 4A3. Thus, the administration dosage of each mouse was 3 mg/kg (based on aptamer). Another mouse inoculated with U118MG above was administered with 1×DMEM medium by tail vein injection (the administration volume was 10 μL/g body weight), and designated as blank control group 4Y.

With “CY5-CfUfGGAGUfUfCfAGACfGUfGUfUfGCfUfCfUfUfCfCfGAUfCfUfCf (CUGGAGUUCAGACGUGUUGCUCUUCCGAUCUC; 2'-fluoro at CU, RNA at AG, 5' {Cy5}, backbone not given here) [AP1]” the “Cy5 fluorescence signal in tumor spheres” value [1] was “strong Cy5 fluorescence signal”, the “Cy5 fluorescence signal in cells” value (SVGp12 normal astrocytes) was “did not show any fluorescence signal” and the “Cy5 fluorescence signal in cells” value [2] was “nor the 293T human renal epithelial cells showed any fluorescence signal”. For the same substance, the “fluorescence signal in mice / at site of tumor inoculation” value [3] was “strong fluorescence signal at the sites of tumor inoculation”.

From patent US20250325675A1, “APTAMER, CONJUGATE, COMPOSITION, METHOD FOR PREPARING SAME, AND USE THEREOF” (priority 2022, published 2025)
